According to patent US20240368168A1, “SARM1 ENZYME ACTIVITY INHIBITOR AND APPLICATION THEREOF” (ARTIVILA BIOPHARMA, priority 2021, published 2024):

How the values were obtained:
[1] = biological target: T1, SARM1 protein in iSARM1 (HEK293) cells (Homo sapiens, UniProt Q6SZW1); assay: Inhibitory activity in inducible SARM1 overexpressing cell line, intracellular cADPR level; format: cell-based; details: activator CZ-48 100 μM, cADPR content
T1 construct: The full-length SARM1 was synthesized into the pUC57 plasmid by WZ Biosciences Inc., and PCR was performed using pUC57-SARM1 as a DNA template
T1 sequence (Q6SZW1 28-724): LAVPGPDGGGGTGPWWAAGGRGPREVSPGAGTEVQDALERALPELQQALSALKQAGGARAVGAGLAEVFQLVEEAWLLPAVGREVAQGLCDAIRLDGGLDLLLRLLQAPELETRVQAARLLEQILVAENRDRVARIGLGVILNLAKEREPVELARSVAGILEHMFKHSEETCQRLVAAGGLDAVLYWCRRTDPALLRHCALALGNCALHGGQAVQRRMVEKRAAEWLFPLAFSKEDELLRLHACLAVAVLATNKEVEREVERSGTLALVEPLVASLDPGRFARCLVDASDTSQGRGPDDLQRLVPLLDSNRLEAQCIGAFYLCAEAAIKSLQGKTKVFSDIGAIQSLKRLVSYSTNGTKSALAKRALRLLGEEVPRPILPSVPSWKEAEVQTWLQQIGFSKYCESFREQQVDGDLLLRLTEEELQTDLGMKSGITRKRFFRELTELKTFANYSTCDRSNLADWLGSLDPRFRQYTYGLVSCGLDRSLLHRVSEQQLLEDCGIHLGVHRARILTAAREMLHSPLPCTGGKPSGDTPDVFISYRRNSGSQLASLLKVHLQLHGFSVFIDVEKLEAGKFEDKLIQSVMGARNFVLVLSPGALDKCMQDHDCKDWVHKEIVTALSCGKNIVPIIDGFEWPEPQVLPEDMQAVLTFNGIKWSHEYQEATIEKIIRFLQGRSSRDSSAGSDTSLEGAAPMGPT
Description: In this example, the gene sequence of SARM1 was amplified using PCR, and constructed into pInducer20-neo plasmid. pInducer20-SARM1 virus was packaged in a liposome and infected HEK293 to obtain an inducible SARM1-overexpressing cell line, which was labeled as iSARM1 (HEK293). The specific preparation was as follows:
First, a 96-well culture plate was treated with 0.05 mg/ml polylysine for 5 minutes and washed once with PBS. 3×10^4 iSARM1 (HEK293) cells were plated into the 96-well plate and cultured overnight in a 37° C. and 5% incubator. The next day, the cells were added with an inhibitor with a final concentration of 50 μM, incubated in the incubator for 1.5 hours, added with activator CZ-48 with a final concentration of 100 μM, and incubated for 16 hours. Meanwhile, the cells without adding CZ-48 or without adding drug were set as control group. Finally, the intracellular cADPR level was detected to represent the activity of SARM1, and the inhibition rate of SARM1 in cells by 50 μM inhibitor was calculated.
The cADPR measurement was performed as follows. First, the cells were washed once with PBS, and added with 150 μl of pre-cooled 0.6M perchloric acid (PCA) to quickly lyse the cells and precipitate the protein. The PCA supernatant was transferred to a 1.5 ml centrifuge tube. The protein in the culture medium was dissolved again with 100 μl of 1M NaOH. The supernatant was added with 0.5 ml of organic reagent mixture (trioctylamine:chloroform=1:3) to extract PCA from water. After sufficient shaking, the mixture was centrifuged at 12,000 rpm for 10 minutes. The solution was divided into 3 layers: the upper aqueous phase, containing the small molecules of interest; the lower organic phase, in which PCA was dissolved; and a thin protein layer between the upper and lower layers. The upper layer was transferred to a new centrifuge tube, added with 1M Tris-Mg at a ratio of 1:100 (1M Tris (pH 8.0): 1M MgCl2=9:1), added with NADase at a ratio of 1:250, and treated at 37° C. overnight to remove NAD^+ from the mixed solution. After the treatment was completed, the mixed solution was filtered using Millipore's 10 K 96-well filter plate to remove NADase.
The cADPR content in the solution was determined through Cycling analysis method. The specific steps were as follows: 20 μl of the sample to be tested or the cADPR standard was taken and added to a 96-well opaque white plate. Preparation of reaction solution: 9.6 ml of PBS (pH 7.4), 200 μl of ethanol, 150 μl of 1 mg/ml AD, 10 μl of 10 mM FMN, 5 μl of 18 mg/ml Diaphorase, 10 μl of 10 mM Resazurin, and 100 μl of 1M Nam. Half of the reaction solution was divided and added with 0.2 μg/ml cyclase. The reaction solution without adding cyclase was used as control experiment. Each sample was divided into two groups, 3 replicates in each group. The reaction solutions containing or not containing cyclase were added to each group to perform the reaction. The reaction kinetic curve within 30 minutes was recorded (Ex:Em=544/599). The average slope of the reaction was calculated. Conversion was performed according to cADPR standard to obtain the accurate cADPR content. A curve of intracellular cADPR content vs corresponding inhibitor concentration was plotted. The half inhibitory concentration of the inhibitor was calculated.

dN-SARM1 protein = biological target: T2, dN-SARM1 protein (Homo sapiens, UniProt Q6SZW1); assay: In vitro biochemical assay for inhibiting SARM1 enzymatic activity (IC50), PC6 fluorescence method; details: 50 μM NAD, 50 μM PC6, 50 μM NMN activator
T2 construct: the N-terminal mitochondrial localization signal peptide of SARM1 was removed
T2 sequence (Q6SZW1 28-724): T1 sequence (Q6SZW1 28-724)
Description: 200 μM compound was first added to a solution of 0.05 μg/ml dN-SARM1 in 50 mM Tris-HCl (pH 7.5). Half of the mixture was added to an equal volume of a solution of 0.05 μg/ml dN-SARM1 in 50 mM Tris-HCl (pH 7.5) and mixed. The drug was diluted 6 times in this manner, with the final concentrations being 200, 100, 50, 25, 12.5, 6.25, 3.125 μM, or 200, 50, 12.5, 3.125, 0.78, 0.195, 0.049 μM, respectively. The protein without inhibitors added, being used as control group, was incubated at room temperature for 10 minutes.
50 μM NAD, 50 μM PC6 as substrate and 50 μM NMN as activator were added to the dN-SARM1 protein incubated with the inhibitor and reacted for 30 minutes at room temperature. The concentration of each component was the final concentration in the reaction system.
During the reaction, PC6 fluorescence spectrum dynamics were detected by a microplate reader, wherein the excitation wavelength and emission wavelength for detection were 390 nm and 520 nm, respectively. Finally, the reaction rate was used to express the activity of the protein, and the half inhibitory concentration was calculated. The higher the reaction rate, the stronger the protein activity, and the lower the inhibitory efficiency of the compound.
The dose curve of compounds inhibiting SARM1 enzymatic activity was determined using the above method.

| SMILES | EC50 [1] [nM] | IC50 (dN-SARM1 protein) [nM] |
| --- | --- | --- |
| O=C(Nc1cccc(-c2cnc3ccc(N4CCOCC4)cn23)c1)[C@H]1C[C@H](N2CCOCC2)C1 [Compound 231] | 1000 to 10000 | 1000 to 10000 |
| CN(C(=O)OC(C)(C)C)c1ccc2ncc(-c3cccc4[nH]ccc34)n2c1 [Compound 275] | 1000 to 10000 | 1000 to 10000 |
| CNc1ccc2ncc(-c3ccc(S(N)(=O)=O)cc3)n2c1 [Compound 63, 4-(6-(methylamino)imidazo[1,2-a]pyridin-3-yl)benzenesulfonamide] | 1000 to 10000 | 1000 to 10000 |
| O=C(Nc1cccc(-c2cnc3ccc(N4CCOCC4)cn23)c1)[C@H]1C[C@@H](N2CCOCC2)C1 [Compound 230] | 1000 to 10000 | 1000 to 10000 |
| CC(C)(C)OC(=O)N(C/C=C/c1cccc(N)c1)c1ccc2ncc(-c3cccc(NC(=O)C4CCOCC4)c3)n2c1 [Compound 219] | 1000 to 10000 | 1000 to 10000 |
| CN(C(=O)OC(C)(C)C)c1ccc2ncc(-c3cccc(N)c3)n2c1 [Compound 2] | 1000 to 10000 | < 1000 |
| CNc1ccc2ncc(-c3cccc4[nH]ccc34)n2c1 [Compound 255] | 1000 to 10000 | < 1000 |
| CN(C(=O)OC(C)(C)C)c1ccc2ncc(-c3ccccc3)n2c1 [Compound 8] | 1000 to 10000 | 1000 to 10000 |
| CN(C(=O)OC(C)(C)C)c1ccc2ncc(-c3cccc(O)c3)n2c1 [Compound 272] | 1000 to 10000 | 1000 to 10000 |
| CN(C(=O)OC(C)(C)C)c1ccc2ncc(-c3cccc(OCCOCc4ccccc4)c3)n2c1 [Compound 156] | 1000 to 10000 | 1000 to 10000 |
| CNc1ccc2ncc(-c3cccc(CN)c3)n2c1 [Compound 274] | 1000 to 10000 | 1000 to 10000 |
| CN(C(=O)OC(C)(C)C)c1ccc2ncc(-c3nn4ccnc4s3)n2c1 [Compound 168] | 1000 to 10000 | < 1000 |
| CNc1ccc2ncc(-c3nn4ccnc4s3)n2c1 [Compound 185] | 1000 to 10000 | 1000 to 10000 |
| CNC(=O)c1cccc(-c2cnc3ccc(N(C)C(=O)OC(C)(C)C)cn23)c1 [Compound 276] | 1000 to 10000 | 1000 to 10000 |
| CN(C(=O)OC(C)(C)C)c1ccc2ncc(-c3cccc4c3CC(=O)N4)n2c1 [Compound 260] | 1000 to 10000 | < 1000 |
| CN(C(=O)OC(C)(C)C)c1ccc2ncc(-c3ccc(NC(=O)c4ccccc4)s3)n2c1 [Compound 181] | 1000 to 10000 | 1000 to 10000 |

Results, then the compound that gave them:

| EC50 [1] [nM] | IC50 (dN-SARM1 protein) [nM] | SMILES |
| --- | --- | --- |
| 1000 to 10000 | 1000 to 10000 | Cc1ncsc1-c1ccc(CNC(=O)[C@@H]2C[C@@H](O)CN2C(=O)[C@@H](NC(=O)COCCOCC(=O)Nc2cccc(-c3cnc4ccc(N(C)C(=O)OC(C)(C)C)cn34)c2)C(C)(C)C)cc1 [Compound 113] |
| 1000 to 10000 | < 1000 | CN(C(=O)OC(C)(C)C)c1ccc2ncc(-c3ccn4ccnc4c3)n2c1 [Compound 169] |
| < 1000 | < 1000 | COCCOCC(=O)Nc1cccc(-c2cnc3ccc(N(C)C(=O)OC(C)(C)C)cn23)c1 [Compound 47, tert-butyl (3-(3-(2-(2-methoxyethoxy)acetamido)phenyl)imidazo[1,2-a]pyridin-6-yl)(methyl) carbamate] |
| < 1000 | 1000 to 10000 | CN(C(=O)OC(C)(C)C)c1ccc2ncc(-c3cccs3)n2c1 [Compound 12] |
| 1000 to 10000 | < 1000 | COc1cccc(-c2cnc3ccc(N(C)C(=O)OC(C)(C)C)cn23)c1 [Compound 13] |
| < 1000 | 1000 to 10000 | CN(C(=O)OC(C)(C)C)c1ccc2ncc(-c3cccc(N(C)C(=O)C4CCOCC4)c3)n2c1 [Compound 158, tert-butyl methyl (3-(3-(N-methyltetrahydro-2H-pyran-4-carboxamido)phenyl)imidazo[1,2-a]pyridin-6-yl)carbamate] |
| < 1000 | < 1000 | CN(C(=O)OC(C)(C)C)c1ccc2ncc(-c3cccc(NC(=O)[C@@H]4CCOC4)c3)n2c1 [Compound 238] |
| < 1000 | < 1000 | CN(C(=O)COC1CCOC1)c1cccc(-c2cnc3ccc(N(C)C(=O)OC(C)(C)C)cn23)c1 (stereo not drawn) [Compound 160] |
| < 1000 | 1000 to 10000 | C=CCN(C(=O)OC(C)(C)C)c1ccc2ncc(-c3cccc(NC(=O)C4CCOCC4)c3)n2c1 [Compound 213, tert-butyl allyl(3-(3-(tetrahydro-2H-pyran-4-carboxamido)phenyl)imidazo[1,2-a]pyridin-6-yl)carbamate] |
| < 1000 | 1000 to 10000 | CN(C(=O)OC(C)(C)C)c1ccc2ncc(C3CCCCC3)n2c1 [Compound 84, tert-butyl (3-cyclohexylimidazo[1,2-a]pyridin-6-yl)(methyl)carbamate] |
| < 1000 | < 1000 | CNc1ccc2ncc(-c3cc4cc[nH]c4cn3)n2c1 [Compound 162, N-methyl-3-(1H-pyrrolo[2,3-c]pyridin-5-yl)imidazo[1,2-a]pyridin-6-amine] |
| < 1000 | < 1000 | CNc1ccc2ncc(-c3cccc(NC(=O)COCCOCc4ccccc4)c3)n2c1 [Compound 241] |
| < 1000 | 1000 to 10000 | CN(C(=O)OC(C)(C)C)c1ccc2ncc(-c3ccccc3Cl)n2c1 [Compound 11] |
| < 1000 | < 1000 | CN(C(=O)OC(C)(C)C)c1ccc2ncc(-c3cccc(NC(=O)COC4CCOC4)c3)n2c1 (stereo not drawn) [Compound 237] |
| < 1000 | < 1000 | CNc1ccc2ncc(-c3cccc(NC(=O)C4CCOCC4)n3)n2c1 [Compound 171] |
| < 1000 | 1000 to 10000 | Cc1ccccc1-c1cnc2ccc(N(C)C(=O)OC(C)(C)C)cn12 [Compound 10] |
| < 1000 | 1000 to 10000 | CN(C(=O)OC(C)(C)C)c1ccc2ncc(-c3cccc(NC(=O)c4ccccc4)c3)n2c1 [Compound 249] |
